Measurements reported in the NIST ThermoML archive (doi:10.1021/je700293s).
± gives the expanded uncertainty stated by the source.

Assay: xn = mol fraction of the nth substance listed
Conditions: 101 kPa, Liquid, Capillary tube (Ostwald / Ubbelohde) method

SMILES: CCCCCCCC(=O)OCC(COC(=O)CCCCCCC)OC(=O)CCCCCCC [1,2,3-propanetriol trioctanoate] + CCCCCCCCCC(=O)O
- kinematic viscosity (303.15 K, x2 = 0.4763): 1.48e-05 ± 4.9e-07 m2/s
- kinematic viscosity (303.15 K, x2 = 0.7423): 1.29e-05 ± 4.2e-07 m2/s
- kinematic viscosity (303.15 K, x2 = 0.8902): 8.98e-06 ± 2.9e-07 m2/s
- kinematic viscosity (313.15 K, x2 = 0.4763): 1.05e-05 ± 3.5e-07 m2/s
- kinematic viscosity (313.15 K, x2 = 0.7423): 9.46e-06 ± 3.1e-07 m2/s
- kinematic viscosity (313.15 K, x2 = 0.8902): 7.83e-06 ± 2.6e-07 m2/s
- kinematic viscosity (323.15 K, x2 = 0.4763): 7.89e-06 ± 2.6e-07 m2/s
- kinematic viscosity (323.15 K, x2 = 0.7423): 7.16e-06 ± 2.4e-07 m2/s
- kinematic viscosity (323.15 K, x2 = 0.8902): 6.09e-06 ± 2e-07 m2/s
- kinematic viscosity (333.15 K, x2 = 0.4763): 6.15e-06 ± 2e-07 m2/s
- kinematic viscosity (333.15 K, x2 = 0.7423): 5.66e-06 ± 1.9e-07 m2/s
- kinematic viscosity (333.15 K, x2 = 0.8902): 4.9e-06 ± 1.6e-07 m2/s
- kinematic viscosity (343.15 K, x2 = 0.4763): 5.12e-06 ± 1.7e-07 m2/s
- kinematic viscosity (343.15 K, x2 = 0.7423): 4.57e-06 ± 1.5e-07 m2/s
- kinematic viscosity (343.15 K, x2 = 0.8902): 3.99e-06 ± 1.3e-07 m2/s
- kinematic viscosity (353.15 K, x2 = 0.4763): 4.13e-06 ± 1.4e-07 m2/s
- kinematic viscosity (353.15 K, x2 = 0.7423): 3.88e-06 ± 1.3e-07 m2/s
- kinematic viscosity (353.15 K, x2 = 0.8902): 3.24e-06 ± 1.1e-07 m2/s
- kinematic viscosity (363.15 K, x2 = 0.4763): 3.53e-06 ± 1.2e-07 m2/s
- kinematic viscosity (363.15 K, x2 = 0.7423): 3.18e-06 ± 1.1e-07 m2/s
- kinematic viscosity (363.15 K, x2 = 0.8902): 2.58e-06 ± 9e-08 m2/s

SMILES: CCCCCCCC/C=C\CCCCCCCC(=O)O [(Z)-9-octadecenoic acid] + CCCCCCCC/C=C\CCCCCCCC(=O)OCC(COC(=O)CCCCCCC/C=C\CCCCCCCC)OC(=O)CCCCCCC/C=C\CCCCCCCC
- kinematic viscosity (293.15 K, x1 = 0.758): 6.78e-05 ± 2.3e-06 m2/s
- kinematic viscosity (303.15 K, x1 = 0.758): 4.49e-05 ± 1.5e-06 m2/s
- kinematic viscosity (313.15 K, x1 = 0.758): 3.13e-05 ± 1e-06 m2/s
- kinematic viscosity (323.15 K, x1 = 0.758): 2.28e-05 ± 7.6e-07 m2/s
- kinematic viscosity (333.15 K, x1 = 0.758): 1.62e-05 ± 5.4e-07 m2/s
- kinematic viscosity (343.15 K, x1 = 0.758): 1.26e-05 ± 4.2e-07 m2/s
- kinematic viscosity (353.15 K, x1 = 0.758): 1e-05 ± 3.3e-07 m2/s
- kinematic viscosity (363.15 K, x1 = 0.758): 8.22e-06 ± 2.7e-07 m2/s

SMILES: CCCCC/C=C\C/C=C\CCCCCCCC(=O)O [(Z,Z)-9,12-octadecadienoic acid] + CCCCCCCC/C=C\CCCCCCCC(=O)OCC(COC(=O)CCCCCCC/C=C\CCCCCCCC)OC(=O)CCCCCCC/C=C\CCCCCCCC
- kinematic viscosity (303.15 K, x1 = 0.7576): 2.96e-05 ± 9.8e-07 m2/s
- kinematic viscosity (313.15 K, x1 = 0.7576): 2.13e-05 ± 7.1e-07 m2/s
- kinematic viscosity (323.15 K, x1 = 0.7576): 1.59e-05 ± 5.3e-07 m2/s
- kinematic viscosity (333.15 K, x1 = 0.7576): 1.23e-05 ± 4.1e-07 m2/s
- kinematic viscosity (343.15 K, x1 = 0.7576): 9.76e-06 ± 3.2e-07 m2/s
- kinematic viscosity (353.15 K, x1 = 0.7576): 7.91e-06 ± 2.6e-07 m2/s
- kinematic viscosity (363.15 K, x1 = 0.7576): 6.52e-06 ± 2.2e-07 m2/s

SMILES: CCCCC/C=C\C/C=C\CCCCCCCC(=O)OCC(COC(=O)CCCCCCC/C=C\C/C=C\CCCCC)OC(=O)CCCCCCC/C=C\C/C=C\CCCCC [trilinolein] + CCCCCCCC/C=C\CCCCCCCC(=O)O
- kinematic viscosity (293.15 K, x2 = 0.7564): 4.14e-05 ± 1.4e-06 m2/s
- kinematic viscosity (303.15 K, x2 = 0.7564): 2.82e-05 ± 9.4e-07 m2/s
- kinematic viscosity (313.15 K, x2 = 0.7564): 2.07e-05 ± 6.9e-07 m2/s
- kinematic viscosity (323.15 K, x2 = 0.7564): 1.48e-05 ± 4.9e-07 m2/s
- kinematic viscosity (333.15 K, x2 = 0.7564): 1.15e-05 ± 3.8e-07 m2/s
- kinematic viscosity (343.15 K, x2 = 0.7564): 9.32e-06 ± 3.1e-07 m2/s
- kinematic viscosity (353.15 K, x2 = 0.7564): 7.62e-06 ± 2.5e-07 m2/s
- kinematic viscosity (363.15 K, x2 = 0.7564): 6.38e-06 ± 2.1e-07 m2/s

SMILES: CCCCCCCC/C=C\CCCCCCCC(=O)O [(Z)-9-octadecenoic acid] + CCCCCCCCCC(=O)O
- kinematic viscosity (303.15 K, x2 = 0.3533): 1.99e-05 ± 6.6e-07 m2/s
- kinematic viscosity (303.15 K, x2 = 0.6211): 1.45e-05 ± 4.8e-07 m2/s
- kinematic viscosity (313.15 K, x2 = 0.3533): 1.45e-05 ± 4.8e-07 m2/s
- kinematic viscosity (313.15 K, x2 = 0.6211): 1.08e-05 ± 3.6e-07 m2/s
- kinematic viscosity (323.15 K, x2 = 0.3533): 1.09e-05 ± 3.6e-07 m2/s
- kinematic viscosity (323.15 K, x2 = 0.6211): 8.25e-06 ± 2.7e-07 m2/s
- kinematic viscosity (333.15 K, x2 = 0.3533): 8.52e-06 ± 2.8e-07 m2/s
- kinematic viscosity (333.15 K, x2 = 0.6211): 6.39e-06 ± 2.1e-07 m2/s
- kinematic viscosity (343.15 K, x2 = 0.3533): 6.83e-06 ± 2.3e-07 m2/s
- kinematic viscosity (343.15 K, x2 = 0.6211): 5.17e-06 ± 1.7e-07 m2/s
- kinematic viscosity (353.15 K, x2 = 0.3533): 5.63e-06 ± 1.9e-07 m2/s
- kinematic viscosity (353.15 K, x2 = 0.6211): 4.27e-06 ± 1.4e-07 m2/s
- kinematic viscosity (363.15 K, x2 = 0.3533): 4.69e-06 ± 1.5e-07 m2/s
- kinematic viscosity (363.15 K, x2 = 0.6211): 3.36e-06 ± 1.1e-07 m2/s

SMILES: CCCCC/C=C\C/C=C\CCCCCCCC(=O)OCC(COC(=O)CCCCCCC/C=C\C/C=C\CCCCC)OC(=O)CCCCCCC/C=C\C/C=C\CCCCC [trilinolein] + CCCCC/C=C\C/C=C\CCCCCCCC(=O)O
- kinematic viscosity (303.15 K, x2 = 0.7536): 2.55e-05 ± 8.4e-07 m2/s
- kinematic viscosity (313.15 K, x2 = 0.7536): 1.85e-05 ± 6.2e-07 m2/s
- kinematic viscosity (323.15 K, x2 = 0.7536): 1.31e-05 ± 4.4e-07 m2/s
- kinematic viscosity (333.15 K, x2 = 0.7536): 9.96e-06 ± 3.3e-07 m2/s
- kinematic viscosity (343.15 K, x2 = 0.7536): 7.98e-06 ± 2.6e-07 m2/s
- kinematic viscosity (353.15 K, x2 = 0.7536): 6.83e-06 ± 2.2e-07 m2/s
- kinematic viscosity (363.15 K, x2 = 0.7536): 5.69e-06 ± 1.9e-07 m2/s
